Read-outs that look alike come from different tables or passages of the source.
Key:
NCI-H358 (K-Ras G12C) = assay: CellTiter-Glo cell viability assay, NCI-H358; type: cell-based, human; conditions: NCI-H358, 5-day treatment, class symbols, read-out: Additional H358 Cell Viability assay data (K-Ras G12C, IC50)
Procedure, shortened: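 Compounds were dispensed directly onto K-Ras mutant cells and incubated until day 5, then plates were equilibrated to room temperature for about 30 minutes before CellTiter-Glo luminescence. Signals were normalized as (sample/average DMSO)*100 and fitted by four-parameter logistic fit.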

K-Ras G12C = K-Ras G12C (Homo sapiens (Human), UniProt P01116+P62937, G12C); assay: Ras-Raf (BRAF RBD) disruption / FRET / MOA assay, KRAS G12C; type: biochemical; conditions: KRAS G12C; Ras-Raf disruption/FRET/MOA assay; read-out: IC50* KRAS G12C FRET data
Procedure, shortened: (§1)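 Compounds, top final concentration 30 μM in 10-point 3-fold series, incubated 3 hours at 25° C with nucleotide-loaded Ras, cyclophilin A and BRAF RBD.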

K-Ras G13C = K-Ras G13C (Homo sapiens (Human), UniProt P01116+P62937, G13C); assay: Ras-Raf (BRAF RBD) disruption / FRET / MOA assay, KRAS G13C; type: biochemical; conditions: KRAS G13C; Ras-Raf disruption/FRET/MOA assay; read-out: IC50* KRAS G13C FRET data
Procedure, shortened: as §1

KRAS G12S = KRAS G12S (Homo sapiens (Human), UniProt P01116+P62937, G12S); assay: Ras-Raf (BRAF RBD) disruption / FRET / MOA assay, KRAS G12S; type: biochemical; conditions: Ras-Raf disruption/FRET/MOA assay; class symbols; read-out: KRAS G12S FRET data IC50
Procedure, shortened: as §1

KRAS G12D = KRAS G12D (Homo sapiens (Human), UniProt P01116+P62937, G12D); assay: Ras-Raf (BRAF RBD) disruption / FRET / MOA assay, KRAS G12D; type: biochemical; conditions: Ras-Raf disruption/FRET/MOA assay; class symbols; read-out: KRAS G12D FRET data IC50
Procedure, shortened: as §1

KRAS G12V = KRAS G12V (Homo sapiens (Human), UniProt P01116+P62937, G12V); assay: Ras-Raf (BRAF RBD) disruption / FRET / MOA assay, KRAS G12V; type: biochemical; conditions: read-out: IC50* KRAS G12V FRET data
Procedure, shortened: as §1

KRAS WT = KRAS WT (Homo sapiens (Human), UniProt P01116+P62937); assay: Ras-Raf (BRAF RBD) disruption / FRET / MOA assay, KRAS WT; type: biochemical; conditions: read-out: IC50* KRAS WT FRET data
Procedure, shortened: as §1

KRAS G13D = KRAS G13D (Homo sapiens (Human), UniProt P01116+P62937, G13D); assay: Ras-Raf (BRAF RBD) disruption / FRET / MOA assay, KRAS G13D; type: biochemical; conditions: read-out: IC50* KRAS G13D FRET data
Procedure, shortened: as §1

NRAS G12C = NRAS G12C (Homo sapiens (Human), UniProt P01111+P62937, G12C); assay: Ras-Raf (BRAF RBD) disruption / FRET / MOA assay, NRAS G12C; type: biochemical; conditions: read-out: IC50* NRAS G12C FRET data
Procedure, shortened: as §1

Sequence of KRAS G12V (P01116-2 other isoform, or with tags, fused parts or gaps G12V): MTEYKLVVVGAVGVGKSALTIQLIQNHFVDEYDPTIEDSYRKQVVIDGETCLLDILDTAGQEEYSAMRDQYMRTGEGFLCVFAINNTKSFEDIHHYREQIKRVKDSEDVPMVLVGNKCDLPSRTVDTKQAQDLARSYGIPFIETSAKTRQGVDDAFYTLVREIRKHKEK
Sequence of KRAS G12V (P62937 whole entry): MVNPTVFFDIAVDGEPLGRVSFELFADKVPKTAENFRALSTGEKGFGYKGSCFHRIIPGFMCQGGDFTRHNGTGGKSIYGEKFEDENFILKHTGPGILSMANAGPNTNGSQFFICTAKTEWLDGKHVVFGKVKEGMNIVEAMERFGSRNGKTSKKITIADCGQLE
Sequence of KRAS G12D (P01116-2 other isoform, or with tags, fused parts or gaps G12D): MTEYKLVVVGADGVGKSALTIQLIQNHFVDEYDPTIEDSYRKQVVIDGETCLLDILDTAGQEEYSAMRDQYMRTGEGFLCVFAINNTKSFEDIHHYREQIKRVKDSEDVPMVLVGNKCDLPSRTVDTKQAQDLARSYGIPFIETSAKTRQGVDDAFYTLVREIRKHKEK
Sequence of KRAS G12D (P62937 whole entry): as the sequence (P62937 whole entry) above
Sequence of KRAS G13D (P01116-2 other isoform, or with tags, fused parts or gaps G13D): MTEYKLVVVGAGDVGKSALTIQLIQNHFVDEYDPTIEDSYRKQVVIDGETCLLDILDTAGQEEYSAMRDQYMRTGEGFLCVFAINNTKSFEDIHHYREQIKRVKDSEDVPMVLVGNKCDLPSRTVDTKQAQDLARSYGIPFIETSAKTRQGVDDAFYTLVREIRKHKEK
Sequence of KRAS G13D (P62937 whole entry): as the sequence (P62937 whole entry) above
Sequence of NRAS G12C (P01111 whole entry G12C): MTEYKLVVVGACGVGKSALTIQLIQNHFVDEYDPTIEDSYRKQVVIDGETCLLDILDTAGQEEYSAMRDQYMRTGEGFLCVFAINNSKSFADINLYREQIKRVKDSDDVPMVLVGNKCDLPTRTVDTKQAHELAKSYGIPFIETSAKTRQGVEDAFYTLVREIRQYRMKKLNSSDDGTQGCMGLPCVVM
Sequence of NRAS G12C (P62937 whole entry): as the sequence (P62937 whole entry) above
Sequence of K-Ras G12C (P01116-2 other isoform, or with tags, fused parts or gaps G12C): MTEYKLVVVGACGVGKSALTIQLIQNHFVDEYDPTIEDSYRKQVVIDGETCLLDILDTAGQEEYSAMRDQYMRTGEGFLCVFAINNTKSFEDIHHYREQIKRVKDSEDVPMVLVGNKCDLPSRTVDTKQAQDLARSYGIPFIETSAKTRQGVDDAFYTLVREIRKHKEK
Sequence of K-Ras G12C (P62937 whole entry): as the sequence (P62937 whole entry) above
Sequence of KRAS G12S (P01116-2 other isoform, or with tags, fused parts or gaps G12S): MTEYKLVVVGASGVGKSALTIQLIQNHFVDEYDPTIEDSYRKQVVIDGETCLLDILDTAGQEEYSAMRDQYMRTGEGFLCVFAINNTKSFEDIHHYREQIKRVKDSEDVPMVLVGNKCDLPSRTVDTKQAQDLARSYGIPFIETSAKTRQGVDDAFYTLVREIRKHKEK
Sequence of KRAS G12S (P62937 whole entry): as the sequence (P62937 whole entry) above
Sequence of K-Ras G13C (P01116-2 other isoform, or with tags, fused parts or gaps G13C): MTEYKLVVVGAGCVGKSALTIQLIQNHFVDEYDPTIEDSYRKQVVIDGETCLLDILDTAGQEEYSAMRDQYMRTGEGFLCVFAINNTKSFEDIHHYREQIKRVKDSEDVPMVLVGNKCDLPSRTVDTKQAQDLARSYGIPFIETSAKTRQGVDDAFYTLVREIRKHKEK
Sequence of K-Ras G13C (P62937 whole entry): as the sequence (P62937 whole entry) above
Sequence of KRAS WT (P01116-2 other isoform, or with tags, fused parts or gaps): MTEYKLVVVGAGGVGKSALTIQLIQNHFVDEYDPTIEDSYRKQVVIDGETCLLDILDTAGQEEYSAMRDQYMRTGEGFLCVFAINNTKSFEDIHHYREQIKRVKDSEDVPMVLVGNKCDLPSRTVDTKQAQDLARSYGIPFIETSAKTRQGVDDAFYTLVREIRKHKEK
Sequence of KRAS WT (P62937 whole entry): as the sequence (P62937 whole entry) above

Compound	IC50 (NCI-H358 (K-Ras G12C)) [µM]	IC50 (K-Ras G12C) [µM]	IC50 (K-Ras G13C) [µM]	IC50 (KRAS G12S) [µM]	IC50 (KRAS G12D) [µM]	IC50 (KRAS G12V) [µM]	IC50 (KRAS WT) [µM]	IC50 (KRAS G13D) [µM]	IC50 (NRAS G12C) [µM]	IC50 (NCI-H358 (K-Ras G12C); Homo sapiens, NCI-H358, 120 h) [µM]
CCn1c(-c2cccnc2[C@H](C)OC)c2c3cc(ccc31)-c1cccc(c1)C[C@H](NC(=O)[C@H](C(C)C)N(C)C(=O)[C@H]1CCN(C(=O)/C=C/CN3CC(OC)C3)C1)C(=O)N1CCC[C@H](N1)C(=O)OCC(C)(C)C2 (atropisomer, axis not shown) [Example A203]	> 1	1 to 10	> 10	> 10	> 10	> 10	> 10	> 10	1 to 10	–
C=CC(=O)N1CC[C@H](C(=O)N(C)[C@H](C(=O)N[C@H]2Cc3ncc(n3C)-c3ccc4c(c3)c(c(-c3cccnc3[C@H](C)OC)n4CC)CC(C)(C)COC(=O)[C@@H]3CCCN(N3)C2=O)C(C)C)C1 (atropisomer, axis not shown) [Example A276]	–	1 to 10	> 10	> 10	> 10	> 10	> 10	> 10	1 to 10	> 1
C=CC(=O)N1CC[C@H](C(=O)N(C)[C@H](C(=O)N[C@H]2Cc3nc(cs3)-c3ccc4c(c3)c(c(-c3cccnc3[C@H](C)OC)n4CC)CC(C)(C)C/C=C/[C@@H]3CCCN(N3)C2=O)C(C)C)C1 (atropisomer, axis not shown) [Example A286]	–	> 10	> 10	> 10	> 10	> 10	> 10	> 10	> 10	> 1
C=CC(=O)N1CC[C@H](C(=O)N(C)[C@H](C(=O)N[C@H]2Cc3nc(cs3)-c3ccc4c(c3)c(c(-c3cccnc3[C@H](C)OC)n4CC)CC(C)(C)CCC[C@@H]3CCCN(N3)C2=O)C(C)C)C1 (atropisomer, axis not shown) [Example A288]	–	> 10	> 10	> 10	> 10	> 10	> 10	> 10	> 10	> 1
C/C=C(\C)S(=O)(=O)N1CC[C@H](C(=O)N(C)[C@H](C(=O)N[C@H]2Cc3cccc(c3)-c3ccc4c(c3)c(c(-c3cccnc3[C@H](C)OC)n4CC)CC(C)(C)COC(=O)[C@@H]3CCCN(N3)C2=O)C(C)C)C1 (atropisomer, axis not shown) [Example A308]	–	> 10	1 to 10	> 10	> 10	> 10	> 10	> 10	> 10	0.1 to 1
C=CC(=O)N1CC[C@H](C(=O)N(C2CC2)[C@H](C(=O)N[C@H]2Cc3cccc(c3)-c3ccc4c(c3)c(c(-c3cccnc3[C@H](C)OC)n4CC)CC(C)(C)COC(=O)[C@@H]3CCCN(N3)C2=O)C(C)C)C1 (atropisomer, axis not shown) [Example A398]	–	1 to 10	1 to 10	> 10	> 10	1 to 10	1 to 10	> 10	1 to 10	0.1 to 1
C=CC(=O)N1CC[C@H](C(=O)N(C)[C@H](C(=O)N[C@H]2Cc3cccc(c3)-c3ccc4c(c3)c(c(-c3cccnc3[C@H](C)OC)n4CC)CC(C)(C)COC(=O)[C@@H]3CCCN(N3)C2=O)C(C)C)[C@@H]1C (atropisomer, axis not shown) [Example A480]	–	1 to 10	1 to 10	> 10	> 10	> 10	> 10	> 10	1 to 10	> 1
C=CC(=O)N1CC[C@H](C(=O)N(C)[C@H](C(=O)N[C@H]2Cn3cnc(n3)-c3ccc4c(c3)c(c(-c3cccnc3[C@H](C)OC)n4CC)CC(C)(C)COC(=O)[C@@H]3CCCN(N3)C2=O)C(C)C)C1 (atropisomer, axis not shown) [Example A506]	–	0.1 to 1	1 to 10	1 to 10	> 10	1 to 10	1 to 10	> 10	0.1 to 1	0.1 to 1
C=CC(=O)N1CC[C@H](C(=O)N(C)[C@H](C(=O)N[C@H]2Cc3cccc(c3)-c3ccc4c(c3)c(c(-c3cc(C5CCN(C)CC5)cnc3[C@H](C)OC)n4CC)CC(C)(C)COC(=O)[C@@H]3CCCN(N3)C2=O)C(C)C)C1 (atropisomer, axis not shown) [Example A516]	> 1	1 to 10	1 to 10	> 10	> 10	> 10	> 10	> 10	1 to 10	–
C=CC(=O)N1CC(OCC(C(=O)N[C@H]2Cc3cc(cc(C(F)F)c3)-c3ccc4c(c3)c(c(-c3cccnc3[C@H](C)OC)n4CC(F)(F)F)CC(C)(C)COC(=O)[C@@H]3CCCN(N3)C2=O)C(C)C)C1 (mixture of isomers) [Example A428]	–	> 10	> 10	> 10	> 10	> 10	> 10	> 10	> 10	> 1
C=CC(=O)N1CC(OCC(C(=O)N[C@H]2Cc3cc(cc(C(F)F)c3)-c3ccc4c(c3)c(c(-c3cccnc3[C@H](C)OC)n4CC)CC(C)(C)COC(=O)[C@@H]3CCCN(N3)C2=O)C(C)C)C1 (mixture of isomers) [Example A450]	–	> 10	> 10	> 10	> 10	> 10	> 10	> 10	> 10	> 1
C=CC(=O)N1CC(OCC(C(=O)N[C@H]2Cc3cccc(c3)-c3ccc4c(c3)c(c(-c3cccnc3[C@H](C)OC)n4CC)CC(C)(C)COC(=O)[C@@H]3CCCN(N3)C2=O)C(C)C)C1 (mixture of isomers) [Example A484]	–	0.1 to 1	1 to 10	> 10	> 10	> 10	> 10	> 10	1 to 10	0.1 to 1
C=CC(=O)N1CCC(C(=O)N(C)[C@H](C(=O)N[C@H]2Cc3cc(O)cc(c3)-c3ccc4c(c3)c(c(-c3ccccc3CCOC)n4CC)CC(C)(C)c3coc(n3)[C@@H]3CCCN(N3)C2=O)C(C)C)C1 (single isomer, unassigned) [Example A231]	–	> 10	> 10	> 10	> 10	> 10	> 10	> 10	> 10	> 1
C=CC(=O)N1CC[C@H](C(=O)N(C)[C@H](C(=O)N[C@H]2Cc3cccc(c3)-c3ccc4c(c3)c(c(-c3cnccc3[C@H](C)OC)n4CC)CC(C)(C)COC(=O)[C@@H]3CCCN(N3)C2=O)C(C)C)C1 [Example A122]	–	> 10	> 10	> 10	> 10	> 10	> 10	> 10	> 10	> 1
C=CC(=O)N1CC[C@H](C(=O)N(C)[C@H](C(=O)N[C@H]2Cc3cc(O)cc(c3)-c3ccc4c(c3)c(c(-c3cccnc3CNC)n4CC)CC(C)(C)COC(=O)[C@@H]3CCCN(N3)C2=O)C(C)C)C1 [Example A137]	–	0.1 to 1	> 10	1 to 10	> 10	1 to 10	1 to 10	> 10	0.1 to 1	> 1

From patent US11566007B2, “Ras inhibitors” (Revolution Medicines, Inc., priority 2019, dated 2023)
